From US11655258B2, “Heterocycle derivatives as pesticides” (BAYER AKTIENGESELLSCHAFT, priority 2017, dated 2023)
Where two headings read alike, the source gives them in different places.

Legend:
Myzus persicae [1] = assay: Myzus persicae oral test; assay type: in vivo; conditions: 120 h, read-out: efficacy
Experimental: Myzus persicae Oral Test • Solvent: 100 parts by weight of acetone
To produce a suitable preparation of active compound, 1 part by weight of active compound is dissolved using the specified parts by weight of solvent and made up with water until the desired concentration is attained.
50 μl of the active compound preparation are transferred into microtitre plates and made up to a final volume of 200 μl with 150 μl of IPL41 insect medium (33%+15% sugar). Subsequently, the plates are sealed with parafilm, which a mixed population of green peach aphids (Myzus persicae) within a second microtitre plate is able to puncture and imbibe the solution through.
(§1) After 5 days, the efficacy in % is determined. 100% means that all the aphids have been killed; 0% means that no aphids have been killed.

Myzus persicae [2] = assay: Myzus persicae spray test (Chinese cabbage leaf discs); assay type: in vivo; conditions: foliar, 120 h, read-out: efficacy
Experimental: Myzus persicae Spray Test • Solvent: 78 parts by weight of acetone • 1.5 parts by weight of dimethylformamide • Emulsifier: alkylaryl polyglycol ether
(§2) To produce a suitable active compound preparation, 1 part by weight of active compound is dissolved using the stated parts by weight of solvent and made up with water containing an emulsifier concentration of 1000 ppm until the desired concentration is attained. To produce further test concentrations, the formulation is diluted with emulsifier-containing water.
Discs of Chinese cabbage leaves (Brassica pekinensis) infested by all stages of the green peach aphid (Myzus persicae) are sprayed with an active compound formulation of the desired concentration.
as §1

[3] = log P by HPLC on reversed-phase column (EEC Directive 79/831 Annex V.A8); assay type: physicochemical; conditions: reversed-phase HPLC column (C18); pH 7.8, 0.001 molar aqueous ammonium bicarbonate/acetonitrile, 55° C.; read-out: log P (neutral)
Experimental: The log P values are measured according to EEC Directive 79/831 Annex V.A8 by HPLC (high-performance liquid chromatography) on a reversed-phase column (C 18). Temperature: 55° C.
The LC-MS determination in the neutral range is effected at pH 7.8 with 0.001 molar aqueous ammonium bicarbonate solution and acetonitrile as mobile phases; linear gradient from 10% acetonitrile to 95% acetonitrile. Called log P (neutral) in the table.
Calibration is carried out using unbranched alkan-2-ones (having 3 to 16 carbon atoms) with known Log P values (Log P values determined on the basis of the retention times by linear interpolation between two successive alkanones).

Myzus persicae [4] = assay: Myzus persicae spray test (MYZUPE S), bell pepper plants; assay type: in vivo; conditions: 144 h, 6 dat, read-out: % efficacy
Experimental: Myzus persicae—Spray Test (MYZUPE S) • Solvent: 14 parts by weight of dimethylformamide • Emulsifier: alkylaryl polyglycol ether
as §2, with “water. If the addition of ammonium salts or/and penetrants is required, these are each added in a concentration of 1000 ppm to the formulation solution.” for “water.”
Bell pepper plants (Capsicum annuum) severely infested with the green peach aphid (Myzus persicae) are treated by spraying with the active compound formulation in the desired concentration.
After the desired time, the kill in % is determined. 100% means that all the animals have been killed; 0% means that no animals have been killed.

Myzus persicae [5] = assay: Myzus persicae drench test (MYZUPE D), savoy cabbage; assay type: in vivo; conditions: soil, 240 h, 10 dat, read-out: % efficacy
Experimental: Myzus persicae—Drench Test (MYZUPE D) • Solvent: 7 parts by weight of dimethylformamide • Emulsifier: 2 parts by weight of alkylaryl polyglycol ether
To produce a suitable active compound preparation, 1 part by weight of active compound is mixed with the specified amounts of solvent and emulsifier, and the concentrate is diluted with water to the desired concentration, it being necessary to include the volume of soil which is drenched in the calculation. It should be ensured that a concentration of 40 ppm of emulsifier in the soil is not exceeded. To produce further test concentrations, water is used for dilution.
Savoy cabbage (Brassica oleracea) in pots with soil and infested by all stages of the green peach aphid (Myzus persicae) is watered with an active compound preparation of the desired concentration.
After the desired period of time, the efficacy in % is determined. 100% means that all the aphids have been killed; 0% means that no aphids have been killed.

Phaedon cochleariae = Phaedon cochleariae spray test; assay type: in vivo; conditions: 168 h, read-out: efficacy; for pest or weed control at 20 g/ha: application rate 20 g/ha
Experimental: Phaedon cochleariae—Spray Test • Solvent: 78.0 parts by weight of acetone • 1.5 parts by weight of dimethylformamide • Emulsifier: alkylaryl polyglycol ether
as §2
Discs of Chinese cabbage leaves (Brassica pekinensis) are sprayed with an active compound formulation of the desired concentration and, after drying, populated with larvae of the mustard beetle (Phaedon cochleariae).
After 7 days, the efficacy in % is determined. 100% means that all the beetle larvae have been killed; 0% means that no beetle larvae have been killed.

Nilaparvata lugens = Nilaparvata lugens spray test (NILALU); assay type: in vivo; conditions: 96 h, 4 dat, read-out: % efficacy
Experimental: Nilaparvata lugens—Spray Test (NILALU) • Solvent: 52.5 parts by weight of acetone • 7 parts by weight of dimethylformamide • Emulsifier: alkylaryl polyglycol ether
as §2, with “water. If the addition of ammonium salts or/and penetrants is required, these are each added in a concentration of 1000 ppm to the formulation solution.” for “water.”
Rice plants (Oryza sativa) are sprayed with an active ingredient formulation of the desired concentration and then populated with larvae of the brown planthopper (Nilaparvata lugens).
After the desired period of time, the efficacy in % is determined. 100% means that all of the planthoppers have been killed; 0% means that none of the planthoppers have been killed.

Aphis gossypii = Aphis gossypii spray test (APHIGO); assay type: in vivo; conditions: 144 h, 6 dat, read-out: % efficacy
Experimental: Aphis gossypii Spray Test (APHIGO) • Solvent: 14 parts by weight of dimethylformamide • Emulsifier: alkylaryl polyglycol ether
as §2, with “water. If the addition of ammonium salts or/and penetrants is required, these are each added in a concentration of 1000 ppm to the formulation solution.” for “water.”
Cotton plants (Gossypium hirsutum) heavily infested by the cotton aphid (Aphis gossypii) are sprayed with an active compound formulation of the desired concentration.
After the desired time, the kill in % is determined. 100% means that all the aphids have been killed; 0% means that no aphids have been killed.

Lucilia cuprina = Lucilia cuprina test; assay type: in vivo; conditions: application rate 100 ppm, L1 larvae, after 2 days
Experimental: Lucilia cuprina Test • Solvent: dimethyl sulfoxide
To produce a suitable active compound formulation, 10 mg of active compound are mixed with 0.5 ml of dimethyl sulfoxide, and the concentrate is diluted with water to the desired concentration.
About 20 L1 larvae of the Australian sheep blowfly (Lucilia cuprina) are transferred into a test vessel containing minced horsemeat and the active compound formulation of the desired concentration.
After 2 days, the kill in % is determined. 100% means that all the larvae have been killed; 0% means that no larvae have been killed.

Ctenocephalides felis = Ctenocephalides felis oral test; assay type: in vivo; conditions: application rate 100 ppm in citrated cattle blood, after 2 days
Experimental: Ctenocephalides felis—Oral Test • Solvent: dimethyl sulfoxide
To produce a suitable active compound formulation, 10 mg of active compound are mixed with 0.5 ml of dimethyl sulfoxide. Dilution with citrated cattle blood gives the desired concentration.
About 20 unfed adult cat fleas (Ctenocephalides felis) are placed into a chamber which is closed at the top and bottom with gauze. A metal cylinder whose bottom end is closed with parafilm is placed onto the chamber. The cylinder contains the blood/active compound formulation, which can be imbibed by the fleas through the parafilm membrane.
After 2 days, the kill in % is determined. 100% means that all of the fleas have been killed; 0% means that none of the fleas have been killed.

Spodoptera frugiperda = Spodoptera frugiperda spray test; assay type: in vivo; conditions: application rate 100 g/ha, after 7 days
Experimental: Spodoptera frugiperda—Spray Test • Solvent: 78.0 parts by weight of acetone • 1.5 parts by weight of dimethylformamide • Emulsifier: alkylaryl polyglycol ether
as §2
Leaf discs of maize (Zea mays) are sprayed with an active compound formulation of the desired concentration and, after drying, populated with caterpillars of the fall armyworm (Spodoptera frugiperda).
After 7 days, the efficacy in % is determined. 100% means that all the caterpillars have been killed; 0% means that no caterpillar has been killed.

[6] = application rate 4 ppm, after 5 days
[7] = application rate 100 g/ha, after 5 days
[8] = application rate 100 g/ha, after 7 days

CCS(=O)(=O)c1c(-c2nc3cnc(C(F)(F)F)cn3n2)ncc2ccccc12 [Example I-16]
pest or weed control at 4 ppm (Myzus persicae [1]; [6]): 100%
pest or weed control at 100 g/ha (Myzus persicae [2]; [7]): 100%

FC(F)(F)c1cn2nc(-c3nc4ccccc4cc3Br)nc2cn1 [3-Bromo-2-[6-(trifluoromethyl)-[1,2,4]triazolo[1,5-a]pyrazin-2-yl]quinoline]
chromatographic logP [3]: 2.98

CCSc1c(C(=O)OC)nc2cc(C(F)(F)F)ccn12 [Methyl 3-(ethylsulfanyl)-7-(trifluoromethyl)imidazo[1,2-a]pyridine-2-carboxylate]
chromatographic logP [3]: 2.56

CCS(=O)(=O)c1c(C(N)=O)nc2cc(C(F)(F)F)ccn12 [3-(Ethylsulfonyl)-7-(trifluoromethyl)imidazo[1,2-a]pyridine-2-carboxamide]
chromatographic logP [3]: 1.57

CCS(=O)(=O)c1c(-c2nc3ccc(C(F)(F)F)cn3n2)nc2n1CCCC2 [Example I-04]
pest or weed control at 4 ppm (Myzus persicae [1]; [6]): 100%

CCS(=O)(=O)c1c(-c2nc3ccc(C(F)(F)F)cn3n2)nc2cc(S(=O)(=O)C3CC3)ccn12 [Example I-13]
pest or weed control at 4 ppm (Myzus persicae [1]; [6]): 100%
Emax at 20 ppm (Myzus persicae [4]): 95%
pest or weed control at 100 g/ha (Myzus persicae [2]; [7]): 100%
Emax at 20 ppm (Myzus persicae [5]): 100%
pest or weed control at 20 g/ha (Phaedon cochleariae; after 7 days): 83%
pest or weed control at 100 g/ha (Phaedon cochleariae; [8]): 100%
Emax at 100 g/ha (Nilaparvata lugens): 100%
Emax at 20 ppm (Aphis gossypii): 99%

CCS(=O)(=O)c1c(-c2nc3ccc(C(F)(F)F)cn3n2)nc2cc(OCC(F)(F)F)ccn12 [Example I-06]
pest or weed control at 4 ppm (Myzus persicae [1]; [6]): 100%
Emax at 20 ppm (Myzus persicae [4]): 99%
pest or weed control at 20 g/ha (Phaedon cochleariae; after 7 days): 100%
pest or weed control at 100 g/ha (Phaedon cochleariae; [8]): 100%
Emax at 20 ppm (Aphis gossypii): 95%

N=C(Nc1cnc(C(F)(F)F)cn1)c1nc2ccccc2cc1Br [3-Bromo-N-[5-(trifluoromethyl)pyrazin-2-yl]quinoline-2-carboxamidine]
chromatographic logP [3]: 3.01

CCS(=O)(=O)c1c(C#N)nc2cc(C(F)(F)F)ccn12 [3-(Ethylsulfonyl)-7-(trifluoromethypimidazo[1,2-a]pyridine-2-carbonitrile]
chromatographic logP [3]: 2.28

CCS(=O)(=O)c1c(-c2nc3cc(C(F)(F)F)ccc3n2C)nc2cc(C(F)(F)F)ccn12 [Example I-34, reference compound]
Emax at 20 ppm (Myzus persicae [4]): 0%
Emax at 20 ppm (Myzus persicae [5]): 0%
Emax at 100 g/ha (Nilaparvata lugens): 0%
Emax at 500 g/ha (Nilaparvata lugens; 500 g/ha): 0%
aphid kill at 20 ppm (Aphis gossypii): 0%

CCS(=O)(=O)c1c(-c2nc3ccc(C(F)(F)F)cn3n2)nc2cc(NC(=O)OC)ccn12 [Example I-08]
efficacy (kill) (Lucilia cuprina): 100%
pest or weed control at 4 ppm (Myzus persicae [1]): 100%
pest or weed control at 100 g/ha (Myzus persicae [2]): 100%
pest or weed control at 100 g/ha (Phaedon cochleariae): 83%
efficacy (kill) (Ctenocephalides felis): 90%

CCS(=O)(=O)c1c(-c2nc3ccc(C(F)(F)F)cn3n2)ncc2ccccc12 [Example I-15]
pest or weed control at 4 ppm (Myzus persicae [1]; [6]): 100%
pest or weed control at 100 g/ha (Myzus persicae [2]; [7]): 90%

CCS(=O)(=O)c1c(-c2nc3ccc(C(F)(F)F)cn3n2)nc2cc(C3CC3)ccn12 [Example I-10]
pest or weed control at 4 ppm (Myzus persicae [1]; [6]): 100%
efficacy (Spodoptera frugiperda): 83%
Emax at 20 ppm (Myzus persicae [4]): 100%
pest or weed control at 100 g/ha (Myzus persicae [2]; [7]): 90%
Emax at 20 ppm (Myzus persicae [5]): 90%
pest or weed control at 20 g/ha (Phaedon cochleariae; after 7 days): 83%
Emax at 100 g/ha (Nilaparvata lugens): 100%
aphid kill at 20 ppm (Aphis gossypii): 99%

CCS(=O)(=O)c1c(-c2nc3ccc(C(F)(F)F)cn3n2)nc2cc(C(=O)OC)ccn12 [Example I-11]
pest or weed control at 4 ppm (Myzus persicae [1]; [6]): 100%

CCS(=O)(=O)c1cc2ccccc2nc1-c1nc2ccc(C(F)(F)F)cn2n1 [Example I-03]
pest or weed control at 4 ppm (Myzus persicae [1]; [6]): 100%
pest or weed control at 100 g/ha (Myzus persicae [2]; [7]): 90%
pest or weed control at 100 g/ha (Phaedon cochleariae; [8]): 100%

CCS(=O)(=O)c1cc2ccccc2nc1-c1nc2cnc(C(F)(F)F)cn2n1 [Example I-02, 3-Ethylsulfonyl-2-[6-(trifluoromethyl)-[1,2,4]triazolo[1,5-a]pyrazin-2-yl]quinoline]
pest or weed control at 4 ppm (Myzus persicae [1]; [6]): 90%
pest or weed control at 100 g/ha (Myzus persicae [2]; [7]): 100%
pest or weed control at 100 g/ha (Phaedon cochleariae; [8]): 100%
chromatographic logP [3]: 2.44

CCS(=O)(=O)c1c(C(=O)OC)nc2cc(C(F)(F)F)ccn12 [Methyl 3-(ethylsulfonyl)-7-(trifluoromethyl)imidazo[1,2-a]pyridine-2-carboxylate]
chromatographic logP [3]: 2.15

CCS(=O)(=O)c1c(-c2nc3ccc(C(F)(F)F)cn3n2)nc2cc(NC(C)=O)ccn12 [Example I-07]
pest or weed control at 4 ppm (Myzus persicae [1]; [6]): 100%
efficacy (kill) (Ctenocephalides felis): 100%
